Among the data in PubChem BioAssay AID608 (Sanford-Burnham Center for Chemical Genomics, 2007) are Kd values, retold here.

In general, Kd refers to the equilibrium constant for the complex coming apart.

Active and inactive are the calls of the source. The rule behind the calls is not given here. A value given as a limit tells only on which side of the number the result lay.

The target in the assay is Peptidyl-prolyl cis-trans isomerase FKBP1A (Homo sapiens) (UniProt P62942). In words: FKBP12 binders, biophysical, NMR detection (AID 608). The settings on record: NMR binding, purified FKBP12.
Sequence of Peptidyl-prolyl cis-trans isomerase FKBP1A (Homo sapiens) (P62942 whole entry, looked up): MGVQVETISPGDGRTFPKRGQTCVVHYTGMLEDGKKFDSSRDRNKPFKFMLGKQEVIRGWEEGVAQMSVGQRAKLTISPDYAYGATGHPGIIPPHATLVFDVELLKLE
In the case of `O=C(COc1ccccc1F)N1CCOCC1`, the Kd result is “inactive”.

As for `CC1(C)CC2C1CC[C@]1(C)CCC3C(C(=O)O)CC(=O)O[C@@]32C1` (some centres undefined), the Kd was > 4 mM (inactive).

Take `OCC1Cc2ccccc2N1` (centres undefined): the Kd was > 4 mM (inactive).

As to `Cc1cc(S(=O)(=O)N2CCCC2)ccc1OCC(=O)N1CCOCC1`, the Kd result was “inactive”.

As for `Cc1cc(C)n2c(SCc3c(C)noc3C)nnc2n1`, the Kd is > 4 mM (inactive).

On to `O=C1CC[C@]23/C=C/C(=O)NCCCCNCCCNC(=O)/C=C/c4ccc(c2c4)O[C@@H]3C1`, for which the Kd is > 4 mM (inactive).

For the compound `O=c1[nH]c2c(c(=O)n1C1CCCCC1)CCC2`, the Kd was > 4 mM (inactive).

In the case of `Cc1ccc(C(=O)NCCO)c(Cl)c1`, the Kd was > 4 mM (inactive).

For the compound `CC(=O)NN1C(=O)c2cccc3cccc(c23)C1=O`, the Kd was > 4 mM (inactive).

Turning to `NC(=O)CSc1nc2ccccc2c(=O)[nH]1`, the Kd is > 4 mM (inactive).

Take `CC(=O)Nc1ccccc1OCC(N)=O`: the Kd was > 4 mM (inactive).

For `O=c1[nH]c2sc3c(c2c2ncnn12)CCCC3`, the Kd was > 4 mM (inactive).

With `CC(C)c1c(O)c(-c2cc3c(c(C(C)C)c2O)CCC2C(C)(C)CCC[C@]32C)cc2c1CCC1C(C)(C)CCC[C@]21C` (some centres undefined), the Kd is > 4 mM (inactive).

As for `O=C1C=CC2=C3c4cc(O)c(O)cc4C[C@@]3(O)COC2=C1`, the Kd was > 4 mM (inactive).

For `C/C=C/C=N/NC(=O)c1ccc(=O)n(C)c1`, the Kd is > 4 mM (inactive).

`CC(=O)c1c(C)nc(-c2ccc(Cl)cc2Cl)n1O`: the Kd was > 4 mM (inactive).

Take `Cc1noc(C)c1C(=O)Nc1cccnc1`: the Kd is > 4 mM (inactive).

On to `O=C(O)c1ccc2[nH]c3c(c2c1)CSCC3`, for which the Kd was > 4 mM (inactive).

For `Nc1cccc(S(=O)(=O)N2CCCC2)c1`, the Kd is > 4 mM (inactive).

For the compound `CC1=[N+]([O-])C2(N)CCc3c(no[n+]3[O-])C2(O)C1` (centres undefined), the Kd was > 4 mM (inactive).

On to `Cn1c(=O)n(C)c2nc([N+](=O)[O-])c(Cl)cc21`, for which the Kd was > 4 mM (inactive).

`Cn1cc(Cl)c(C(=O)NC2CCCC2)n1`: the Kd was > 4 mM (inactive).

Regarding `Cc1ccc(NS(=O)(=O)N2CCOCC2)c(C)c1`, the Kd is > 4 mM (inactive).

Consider `CC(=O)c1c(O)cc(C)n(Cc2ccccc2)c1=O`, for which the Kd is > 4 mM (inactive).

As for `O=C1CC(N2CCC(O)CC2)C(=O)N1c1ccc(F)cc1` (centres undefined), the Kd is > 4 mM (inactive).

With `CCCCn1c(S(=O)(=O)O)nc2ccccc21`, the Kd is > 4 mM (inactive).

Take `COCC(=O)OCn1nnc2ccccc2c1=O`: the Kd is > 4 mM (inactive).

Consider `CCOC(=O)Cn1cnc2sc3c(c2c1=O)CCC3`, for which the Kd was > 4 mM (inactive).

As for `COC(=O)[C@@H]1OC(=O)C2OC23[C@@]1(C)CCC1[C@@]2(C)CCC(=O)C(C)(C)C2C[C@@H](OC(C)=O)[C@]13C` (some centres undefined), the Kd was > 4 mM (inactive).

As for `CC(=O)Nc1ccc(S(=O)(=O)NCC2CCCO2)cc1` (centres undefined), the Kd is > 4 mM (inactive).

Take `COc1cc2c3cc1Oc1cc(ccc1O)C[C@@H]1c4c(cc(OC)c(O)c4Oc4ccc(cc4)C[C@@H]3N(C)CC2)CC[N+]1(C)C`: the Kd is > 4 mM (inactive).

For the compound `CC(=O)Nc1nnc(-c2ccccc2)o1`, the Kd was > 4 mM (inactive).

Regarding `Nc1ccc(-c2csnn2)cc1`, the Kd is > 4 mM (inactive).

`COc1cc(O)ccc1C(C)=O`: the Kd was > 4 mM (inactive).

For the compound `NC(=O)c1ccc(N2CCCCC2)c(N)c1`, the Kd was > 4 mM (inactive).

As for `Cc1n[nH]c(C)c1CN`, the Kd was > 4 mM (inactive).

Turning to `C[C@@H]1CC[C@@]2(OC1)O[C@H]1CC3C4CC[C@H]5C[C@@H](O)CC[C@]5(C)C4CC[C@]3(C)[C@H]1[C@@H]2C` (some centres undefined), the Kd was > 4 mM (inactive).

Turning to `CSc1nc(=O)[nH]c2c1CCC2`, the Kd is > 4 mM (inactive).

Consider `COC(=O)CC1SC(=O)NC1=O` (centres undefined), for which the Kd was > 4 mM (inactive).
